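How tested: cells in 96-well plates exposed to compound for 48 hours at five concentrations. TGI is the concentration that stops growth completely.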 A value given as a limit tells only on which side of the number the result lay.

For one test, the system named is SNB-19 CNS. The test is described as follows: NCI anticancer screen, dose series, 48 h.
In turn, `Cc1c2ccncc2cc2c1sc1ccncc12` gave a TGI of 30.3 µM.

Consider `C=CCONC(=O)c1ccc(Cl)cc1`, for which the TGI is more than 100 µM.

Consider `O=C(CC1Sc2ccccc2NC1=O)Nc1cc(Cl)ccc1Cl` (stereo unspecified), for which the TGI was more than 100 µM.

`O=C(CCn1[nH]c(=O)c(Cl)c(Cl)c1=O)NOCCCc1ccccc1` showed a TGI of more than 100 µM.

`CC(C)=CCCC1(C)C=Cc2c(c(C)cc3c2[nH]c2cc(O)ccc23)O1` (stereo unspecified) showed a TGI of more than 25 µM.

The molecule `C/C(=N\N)C(CN(C)C)C(c1ccccc1)c1c(O)c2ccccc2oc1=O` (stereo unspecified) displayed a TGI of more than 100 µM.

A further test relates to SK-OV-3 ovarian. As to the kind of experiment: NCI anticancer screen, dose series, 48 h.
`O=C1C/C(=C/c2ccc(/C=C3/CC(=O)N(c4cccc(Br)c4)C3=O)cc2)C(=O)N1c1cccc(Br)c1` gave a TGI of more than 100 µM.

Molecule `CCCCCCn1c(SCC)c2ccccc2c1-c1nc(F)nc(F)n1` gave a TGI of more than 100 µM.

`CN(C(=O)C12C3C4C1C1C2C3C41I)C(C)(C)C` (stereo unspecified) had a TGI of more than 100 µM.

The molecule `CC(=O)/C(=C\c1ccco1)C(=O)Nc1ccccc1` displayed a TGI of more than 100 µM.

In turn, `NCC1(N2CCOCC2)C2CCCC21CO` (stereo unspecified) displayed a TGI of more than 100 µM.

Consider `CC#COP(=O)(OCC)OCC`, for which the TGI was more than 100 µM.

`COc1ccc(/C=C(\Cl)c2ccc(OC)c(OC)c2)cc1OC` had a TGI of more than 100 µM.

The molecule `Cc1c2ccncc2cc2c1sc1ccncc12` returned a TGI of 29 µM.

For `C=CCONC(=O)c1ccc(Cl)cc1`, the TGI is more than 100 µM.

As for `CC(C)=CCCC1(C)C=Cc2c(c(C)cc3c2[nH]c2cc(O)ccc23)O1` (stereo unspecified), the TGI is more than 25 µM.

As to `C/C(=N\N)C(CN(C)C)C(c1ccccc1)c1c(O)c2ccccc2oc1=O` (stereo unspecified), the TGI is more than 100 µM.

Regarding `c1ccc(Nc2nnc(CSc3nc(-c4ccccc4)c(-c4ccccc4)[nH]3)s2)cc1`, the TGI stood at 56 µM.

The test system of another test is BT-549 breast. The test is described as follows: NCI anticancer screen, dose series, 48 h.
Molecule `COc1ccc(/C=C(\Cl)c2ccc(OC)c(OC)c2)cc1OC` yielded a TGI of more than 100 µM.

Molecule `Cc1c2ccncc2cc2c1sc1ccncc12` gave a TGI of 17.6 µM.

In turn, `C/C(=N\N)C(CN(C)C)C(c1ccccc1)c1c(O)c2ccccc2oc1=O` (stereo unspecified) returned a TGI of more than 100 µM.

The subject of another test is M14 melanoma. As to the kind of experiment: NCI anticancer screen, dose series, 48 h.
Take `O=C1C/C(=C/c2ccc(/C=C3/CC(=O)N(c4cccc(Br)c4)C3=O)cc2)C(=O)N1c1cccc(Br)c1`: the TGI was more than 100 µM.

As for `CCCCCCn1c(SCC)c2ccccc2c1-c1nc(F)nc(F)n1`, the TGI was more than 100 µM.

Molecule `CN(C(=O)C12C3C4C1C1C2C3C41I)C(C)(C)C` (stereo unspecified) came in with a TGI of more than 100 µM.

The molecule `CC(=O)/C(=C\c1ccco1)C(=O)Nc1ccccc1` came in with a TGI of more than 100 µM.

Take `NCC1(N2CCOCC2)C2CCCC21CO` (stereo unspecified): the TGI is more than 100 µM.

In the case of `CC#COP(=O)(OCC)OCC`, the TGI was more than 100 µM.

Molecule `COc1ccc(/C=C(\Cl)c2ccc(OC)c(OC)c2)cc1OC` returned a TGI of more than 100 µM.

`Cc1c2ccncc2cc2c1sc1ccncc12` registered a TGI of 13.5 µM.

Molecule `C=CCONC(=O)c1ccc(Cl)cc1` displayed a TGI of more than 100 µM.

`O=C(CC1Sc2ccccc2NC1=O)Nc1cc(Cl)ccc1Cl` (stereo unspecified) registered a TGI of more than 100 µM.

Take `O=C(CCn1[nH]c(=O)c(Cl)c(Cl)c1=O)NOCCCc1ccccc1`: the TGI was more than 100 µM.

In turn, `CC(C)=CCCC1(C)C=Cc2c(c(C)cc3c2[nH]c2cc(O)ccc23)O1` (stereo unspecified) had a TGI of more than 25 µM.

As to `C/C(=N\N)C(CN(C)C)C(c1ccccc1)c1c(O)c2ccccc2oc1=O` (stereo unspecified), the TGI was more than 100 µM.

As to `c1ccc(Nc2nnc(CSc3nc(-c4ccccc4)c(-c4ccccc4)[nH]3)s2)cc1`, the TGI is 28.5 µM.

Another test relates to UACC-257 melanoma. The test is described as follows: NCI anticancer screen, dose series, 48 h.
In the case of `O=C1C/C(=C/c2ccc(/C=C3/CC(=O)N(c4cccc(Br)c4)C3=O)cc2)C(=O)N1c1cccc(Br)c1`, the TGI is more than 100 µM.

In the case of `CCCCCCn1c(SCC)c2ccccc2c1-c1nc(F)nc(F)n1`, the TGI was more than 100 µM.

For `CN(C(=O)C12C3C4C1C1C2C3C41I)C(C)(C)C` (stereo unspecified), the TGI is more than 100 µM.

In turn, `CC(=O)/C(=C\c1ccco1)C(=O)Nc1ccccc1` gave a TGI of more than 100 µM.

`NCC1(N2CCOCC2)C2CCCC21CO` (stereo unspecified): the TGI was more than 100 µM.

The molecule `CC#COP(=O)(OCC)OCC` had a TGI of more than 100 µM.

Molecule `COc1ccc(/C=C(\Cl)c2ccc(OC)c(OC)c2)cc1OC` came in with a TGI of more than 100 µM.

The molecule `Cc1c2ccncc2cc2c1sc1ccncc12` registered a TGI of 11 µM.

Consider `C=CCONC(=O)c1ccc(Cl)cc1`, for which the TGI is more than 100 µM.

Turning to `O=C(CC1Sc2ccccc2NC1=O)Nc1cc(Cl)ccc1Cl` (stereo unspecified), the TGI is more than 100 µM.

As to `O=C(CCn1[nH]c(=O)c(Cl)c(Cl)c1=O)NOCCCc1ccccc1`, the TGI was more than 100 µM.

Turning to `C/C(=N\N)C(CN(C)C)C(c1ccccc1)c1c(O)c2ccccc2oc1=O` (stereo unspecified), the TGI was more than 100 µM.

Take `c1ccc(Nc2nnc(CSc3nc(-c4ccccc4)c(-c4ccccc4)[nH]3)s2)cc1`: the TGI was found to be 50 µM.

The next test relates to UACC-62 melanoma. The test is described as follows: NCI anticancer screen, dose series, 48 h.
`O=C1C/C(=C/c2ccc(/C=C3/CC(=O)N(c4cccc(Br)c4)C3=O)cc2)C(=O)N1c1cccc(Br)c1` had a TGI of more than 100 µM.

Molecule `CN(C(=O)C12C3C4C1C1C2C3C41I)C(C)(C)C` (stereo unspecified) registered a TGI of more than 100 µM.

Molecule `CC(=O)/C(=C\c1ccco1)C(=O)Nc1ccccc1` displayed a TGI of more than 100 µM.

`CC#COP(=O)(OCC)OCC` displayed a TGI of more than 100 µM.

Consider `COc1ccc(/C=C(\Cl)c2ccc(OC)c(OC)c2)cc1OC`, for which the TGI was more than 100 µM.

In turn, `Cc1c2ccncc2cc2c1sc1ccncc12` gave a TGI of 8.41 µM.

`C=CCONC(=O)c1ccc(Cl)cc1`: the TGI was more than 100 µM.

For the molecule `O=C(CC1Sc2ccccc2NC1=O)Nc1cc(Cl)ccc1Cl` (stereo unspecified), the TGI is more than 100 µM.

In turn, `O=C(CCn1[nH]c(=O)c(Cl)c(Cl)c1=O)NOCCCc1ccccc1` returned a TGI of more than 100 µM.

In the case of `CC(C)=CCCC1(C)C=Cc2c(c(C)cc3c2[nH]c2cc(O)ccc23)O1` (stereo unspecified), the TGI was more than 25 µM.

The molecule `C/C(=N\N)C(CN(C)C)C(c1ccccc1)c1c(O)c2ccccc2oc1=O` (stereo unspecified) gave a TGI of more than 100 µM.

The next test has as its system MDA-MB-435. As to the kind of experiment: NCI anticancer screen, dose series, 48 h.
In turn, `COc1ccc(/C=C(\Cl)c2ccc(OC)c(OC)c2)cc1OC` registered a TGI of more than 100 µM.

As for `C/C(=N\N)C(CN(C)C)C(c1ccccc1)c1c(O)c2ccccc2oc1=O` (stereo unspecified), the TGI was more than 100 µM.
